Laboratory results reported in EP0846119B1, “THIENOPYRIMIDINE DERIVATIVES, THEIR PRODUCTION AND USE AS ENDOTHELIN ANTAGONISTS” (Takeda Chemical Industries, Ltd., priority 1995, dated 1997).
Read-outs that look alike come from different tables or passages of the source.

Assays:
[1] = target: T1, human ETA 24 endothelin receptor (Homo sapiens, UniProt P25101); assay: Binding Test to ETA receptor expressed in CHO cell (ET-1-stimulated [3H]arachidonic acid release); type: cell-based; details: CHO cell expressing human ETA (ETA 24 cells), final concentration of ET-1 6.3x10^-10M, n=2
T1 construct: expressed in transfected cells; host or cells: CHO cells (clone ETA 24)
T1 sequence (P25101 21-427): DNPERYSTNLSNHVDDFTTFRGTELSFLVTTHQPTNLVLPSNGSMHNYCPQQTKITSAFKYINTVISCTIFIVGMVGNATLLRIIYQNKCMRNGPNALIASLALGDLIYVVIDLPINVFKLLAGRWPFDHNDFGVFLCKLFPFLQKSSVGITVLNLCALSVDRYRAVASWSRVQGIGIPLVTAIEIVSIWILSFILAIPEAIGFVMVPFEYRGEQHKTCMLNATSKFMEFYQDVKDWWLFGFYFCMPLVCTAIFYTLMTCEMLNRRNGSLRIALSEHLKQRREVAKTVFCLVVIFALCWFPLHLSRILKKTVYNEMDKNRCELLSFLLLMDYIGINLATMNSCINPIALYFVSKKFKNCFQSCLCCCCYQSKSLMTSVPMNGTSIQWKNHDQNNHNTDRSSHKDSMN
Experimental: Binding Test to ETA receptor expressed in CHO cell:
cells: CHO cell expressing human ETA 24 endothelin receptor, i.e. ETA 24 cells medium: DMEM 10% FCS Gln, nonessential amino acids, penicillin, streptomycin
Cells were seeded in 12 wells of 24 well plates at a density of 2x10^5 cells/well (1 ml medium/well). On the next day, [^3H]arachidonic acid was added to each well to be 250 nCi(nanocurie)/ml. On the next day, the medium was sucked from the wells by the use of an aspirator to remove free arachidonic acid and floating cells, and then 0.5 ml of medium was added. This procedure was repeated again. After allowing to stand for 30 minutes in a CO2 incubator, the medium was exchanged rapidly.
The sample of compound obtained in Example 5 or compound 16 of Example 11 was stepwise diluted with a buffer solution for dilution, containing 3.15x10^-8M endothelin-1 (ET-1) {20 mM Tris, 5 mM Mg(AcO)2, 2 mM EGTA, 0.03% NaN3, 0.1% BSA, 0.05% CHAPS}. 10 µl of the solution was added to each well (final concentration of ET-1: 6.3x10^-10M). […] After allowing to-stand for 30 minutes in the CO2 incubator, the medium was completely collected and the radio activity of [^3H]arachidonic acid released in the medium was measured by a liquid scintillation counter. IC50 values were calculated by hill plot from the concentration and relative reaction value of each sample. […]

[2] = target: T2, human endothelin-A (ETA) receptors (Homo sapiens, UniProt P25101); assay: Binding Test to ETA receptor expressed in an insect cell Sf9 ([125I]endothelin-1 displacement)
T2 construct: made in house; host or cells: Sf9 insect cells (membrane fractions)
T2 sequence (P25101 21-427): T1 sequence (P25101 21-427)
Experimental: Binding Test to ETA receptor expressed in an insect cell Sf9:
Endothelin (ET) receptors were prepared by diluting fractions of insect cell (Sf9) membrane having human endothelin-A (ETA) receptors expressed, with an assay buffer {20 mM Tris-HCl, 2 mM EGTA (ethyleneglycol bls(2-aminoethylether) tetra acetic acid), 5 mM magnesium acetate, 0.1% BSA (bovine serum albumin), 0.03% NaN3, 0.5 mM PMSF (phenyl methyl sulfonyl fluoride), 20 µg/ml leupeptin, 4 µg/ml E-64 (products of the Peptide Institute, Japan), 1 µg/ml pepstatin, (pH 7.2)} respectively in a concentration of 1.4 µg/ml in the former case and 0.7 µg/ml in the latte case.
To 100 µl of each portion was added 5 nM[^125I] endothelin-1 (2 µl). A dimethylsulfoxide solution (3 µl) of the test compound was added thereto and incubated at 25°C for 60 minutes.
And, to determine the maximum binding amount (B0) and non-specific binding amount (NSB), lots to which a dimethyl sulfoxide solution (3 µl) or a dimethyl sulfoxide solution (3 µl) containing endothelin-1 (10^-3M) had been added, were also incubated.
These lots were supplemented with 0.05% CHAPS(3-[(3-chloroamidopropyl)dimethylammonio]-1-propanesulfonate)-assay buffer (1.5 ml), subjected to filtration through a glass fiber filter GF/F (trade name; product of Whatman Ltd. (England)), and then washed with the same buffer (1.5 ml)).
Radioactivity on the filter was counted in a gamma-counter to determine the Percent Maximum Binding (PMB) in accordance with the aforesaid calculation formula. The concentration causing PMB=50% was determined as IC50 value.

[3] = Sf9 membrane fractions, [125I]endothelin-1, 25°C, 60 minutes, concentration causing PMB=50%, read-out: IC50 value: µM Human endotherin-A receptor
[4] = Table 5, values recur in Table 7, read-out: Binding IC50 (µM) ETA

`CCS(=O)(=O)NCc1c(-c2ccc(OCOC)cc2)sc2c1c(=O)n(CC(=O)O)c(=O)n2Cc1ccccc1SC` [11(16), 2,4(1H,3H)-Dioxo-6-(4-methoxymethoxyphenyl)-1-(2-methylthiobenzyl)-5-(ethanesulfonamidomethyl)thieno[2,3-d]pyrimidine-3-acetic acid] was tested, and the IC50 [1] was 110 nM, the IC50 [2, 3] was 0.0061 µM and the IC50 [2, 4] was 0.0061 µM.
In the case of `COCOc1ccc(-c2sc3c(c2CNS(C)(=O)=O)c(=O)n(CC(=O)O)c(=O)n3Cc2ccccc2SC)cc1` [Example 5, 2,4(1H,3H)-dioxo-6-(4-methoxymethoxyphenyl)-1-(2-methylthiobenzyl)-5-(methanesulfonamidomethyl)thieno[2,3-d]pyrimidine-3-aretic acid], the IC50 [1] is reported as 390 nM, the IC50 [2, 3] is reported as 0.011 µM and the IC50 [2, 4] is reported as 0.0076 µM.
